From the NIST ThermoML archive (doi:10.1016/j.jct.2009.10.007)
± gives the expanded uncertainty stated by the source.

Legend:
[1] = refractive index (Na D-line) (dimensionless); mn = molality of the nth substance listed, in mol/kg; conditions: 308.15 K, 101 kPa, Liquid, Standard Abbe refractometry
[2] = mn = molality of the nth substance listed, in mol/kg; conditions: 101 kPa, Liquid; for speed of sound: Sing-around technique in a fixed-path interferometer; for mass density: Vibrating tube method

CCCCn1cc[n+](C)c1.[Br-] [1-butyl-3-methylimidazolium bromide] + O
[1]
Conditions | refractive index
m1 = 0.0096 | 1.3326 ± 0.0005
m1 = 0.02 | 1.3343 ± 0.0005
m1 = 0.0298 | 1.3358 ± 0.0005
m1 = 0.0348 | 1.3366 ± 0.0005
m1 = 0.0398 | 1.3375 ± 0.0005
m1 = 0.05 | 1.339 ± 0.0005
m1 = 0.0548 | 1.3397 ± 0.0005
m1 = 0.0598 | 1.3405 ± 0.0005
m1 = 0.0689 | 1.3419 ± 0.0005
m1 = 0.082 | 1.3439 ± 0.0005
m1 = 0.0854 | 1.3444 ± 0.0005
m1 = 0.0896 | 1.3451 ± 0.0005
m1 = 0.1 | 1.3466 ± 0.0005
m1 = 0.1192 | 1.3497 ± 0.0005

[2]
Conditions | mass density, 288.15 K [kg/m3] | mass density, 293.15 K [kg/m3] | mass density, 298.15 K [kg/m3] | mass density, 303.15 K [kg/m3] | mass density, 308.15 K [kg/m3] | speed of sound, 288.15 K [m/s] | speed of sound, 293.15 K [m/s] | speed of sound, 298.15 K [m/s] | speed of sound, 303.15 K [m/s] | speed of sound, 308.15 K [m/s]
m1 = 0.0183 | 1000.03 ± 0.061 | 999.121 ± 0.06 | 997.948 ± 0.06 | 996.538 ± 0.06 | 994.913 ± 0.061 | 1468.7 ± 0.75 | 1484.7 ± 0.75 | 1498.8 ± 0.76 | 1511 ± 0.76 | 1521.5 ± 0.76
m1 = 0.0274 | 1000.49 ± 0.061 | 999.575 ± 0.061 | 998.397 ± 0.061 | 996.983 ± 0.061 | 995.351 ± 0.061 | 1469.8 ± 0.75 | 1485.7 ± 0.76 | 1499.6 ± 0.76 | 1511.8 ± 0.76 | 1522.2 ± 0.76
m1 = 0.0367 | 1000.96 ± 0.061 | 1000.04 ± 0.06 | 998.851 ± 0.061 | 997.432 ± 0.061 | 995.796 ± 0.061 | 1471 ± 0.75 | 1486.7 ± 0.76 | 1500.5 ± 0.76 | 1512.6 ± 0.76 | 1523 ± 0.76
m1 = 0.0459 | 1001.42 ± 0.061 | 1000.49 ± 0.062 | 999.303 ± 0.061 | 997.878 ± 0.061 | 996.238 ± 0.061 | 1472 ± 0.75 | 1487.7 ± 0.76 | 1501.5 ± 0.76 | 1513.4 ± 0.76 | 1523.7 ± 0.76
m1 = 0.0692 | 1002.59 ± 0.061 | 1001.64 ± 0.061 | 1000.44 ± 0.06 | 999.002 ± 0.06 | 997.347 ± 0.061 | 1474.8 ± 0.76 | 1490.2 ± 0.76 | 1503.7 ± 0.76 | 1515.5 ± 0.76 | 1525.6 ± 0.77
m1 = 0.0932 | 1003.78 ± 0.062 | 1002.82 ± 0.061 | 1001.6 ± 0.061 | 1000.15 ± 0.06 | 998.48 ± 0.06 | 1477.3 ± 0.76 | 1492.5 ± 0.76 | 1505.9 ± 0.76 | 1517.5 ± 0.76 | 1527.4 ± 0.77
m1 = 0.1164 | 1004.92 ± 0.062 | 1003.94 ± 0.061 | 1002.71 ± 0.061 | 1001.24 ± 0.061 | 999.565 ± 0.06 | 1480 ± 0.76 | 1495 ± 0.76 | 1508.1 ± 0.77 | 1519.5 ± 0.77 | 1529.3 ± 0.77
m1 = 0.141 | 1006.13 ± 0.062 | 1005.13 ± 0.062 | 1003.88 ± 0.061 | 1002.4 ± 0.061 | 1000.71 ± 0.06 | 1483 ± 0.76 | 1497.6 ± 0.77 | 1510.5 ± 0.77 | 1521.7 ± 0.77 | 1531.2 ± 0.77
m1 = 0.1652 | 1007.3 ± 0.063 | 1006.29 ± 0.062 | 1005.02 ± 0.062 | 1003.53 ± 0.061 | 1001.83 ± 0.061 | 1485.6 ± 0.77 | 1500.1 ± 0.77 | 1512.7 ± 0.77 | 1523.7 ± 0.77 | 1533.1 ± 0.77
m1 = 0.1863 | 1008.32 ± 0.063 | 1007.29 ± 0.063 | 1006.01 ± 0.062 | 1004.51 ± 0.062 | 1002.79 ± 0.061 | 1488 ± 0.77 | 1502.2 ± 0.77 | 1514.7 ± 0.77 | 1525.5 ± 0.77 | 1534.7 ± 0.78
m1 = 0.2114 | 1009.53 ± 0.064 | 1008.48 ± 0.063 | 1007.19 ± 0.063 | 1005.67 ± 0.062 | 1003.94 ± 0.062 | 1490.8 ± 0.77 | 1504.8 ± 0.77 | 1517 ± 0.78 | 1527.6 ± 0.78 | 1536.6 ± 0.78
m1 = 0.2376 | 1010.77 ± 0.065 | 1009.71 ± 0.064 | 1008.4 ± 0.063 | 1006.87 ± 0.063 | 1005.13 ± 0.062 | 1493.6 ± 0.77 | 1507.3 ± 0.78 | 1519.3 ± 0.78 | 1529.7 ± 0.78 | 1538.5 ± 0.78
m1 = 0.2632 | 1011.99 ± 0.065 | 1010.91 ± 0.064 | 1009.58 ± 0.064 | 1008.03 ± 0.063 | 1006.28 ± 0.063 | 1496.4 ± 0.78 | 1509.8 ± 0.78 | 1521.7 ± 0.78 | 1531.8 ± 0.78 | 1540.4 ± 0.79
m1 = 0.2831 | 1012.92 ± 0.065 | 1011.83 ± 0.062 | 1010.49 ± 0.062 | 1008.93 ± 0.062 | 1007.17 ± 0.063 | 1498.5 ± 0.78 | 1511.8 ± 0.78 | 1523.4 ± 0.78 | 1533.4 ± 0.78 | 1541.8 ± 0.79
